Results on 90 compounds are retold here after PubChem BioAssay AID1159561 (GlaxoSmithKline (GSK), 2015).

Activity calls are given as the source filed them.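 The calls were made as follows: active = toxic to mouse fibroblast host cells, with IC50 below 50 µM; inactive = the rest.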 Some results are limits rather than exact numbers.

This experiment concerns NIH-3T3 viability, ATP luminescence. As to the kind of experiment: murine fibroblast viability via ATP level – cell-based, murine fibroblasts, cytotoxicity control for Trypanosoma cruzi inhibitor project (AID 1159561). The conditions noted are these: 4 days.
Turning to `Cc1[nH]c2ccccc2c(=O)c1Cc1c(C)[nH]c2ccccc2c1=O`, the IC50 was > 50 µM (inactive).

On to `COc1cc(C(C)C)c(S(C)(=O)=O)cc1C(=O)N1CCN(c2ccccc2Cl)CC1`, for which the IC50 was > 50 µM (inactive).

For the compound `COc1ccc([N+](=O)[O-])cc1NC(=O)Nc1cccc(Cl)c1`, the IC50 is > 50 µM (inactive).

With `COc1ccc(-c2nc3ncccc3o2)cc1NC(=O)c1cccs1`, the IC50 is > 50 µM (inactive).

As for `O=c1oc2ccccc2n1C1CCN(Cc2ccccc2-c2cccnc2)CC1`, the IC50 was 16 µM.

Turning to `Cc1c(C(=O)NCCCCn2ccnc2)oc2c(C)cccc12`, the IC50 was 32 µM.

With `O=C(N1CCc2ccccc2CC1)C1(C(=O)N2CCC(n3c(=O)[nH]c4ncccc43)CC2)CC1`, the IC50 was 40 µM.

For the compound `Cc1ccc(NC(=O)C(C)n2nc([N+](=O)[O-])c(Br)c2C)cc1Cl` (stereo not given), the IC50 is 13 µM.

In the case of `COc1ccc(C(=O)N2CCC(Nc3cccnc3)C2)c(OC)n1` (stereo not given), the IC50 was > 50 µM (inactive).

For `O=S(=O)(NCC(c1cccnc1)N1CCN(c2ccc(F)cc2)CC1)c1cccs1` (stereo not given), the IC50 was > 50 µM (inactive).

Regarding `O=C(NCC1CCCCC1)c1cnns1`, the IC50 was > 50 µM (inactive).

Take `O=C(COc1ncnc2cc([N+](=O)[O-])ccc12)NC(=O)NC1CCCCC1`: the IC50 is > 50 µM (inactive).

In the case of `COc1ccc(S(=O)(=O)NC(C)C)cc1Nc1ncc(-c2cccc(F)c2)cn1`, the IC50 was 5 µM.

With `O=C(NCc1ccncc1)c1ccccc1N1CCCN(C(=O)Cc2ccc(F)c(F)c2)CC1`, the IC50 is 16 µM.

Consider `CNc1cncc(C2CCCN2C(=O)Cc2ccc3ccccc3c2)n1` (stereo not given), for which the IC50 is > 50 µM (inactive).

In the case of `CC1(C)CCC(=Cc2ccc(Cl)cc2)CC1(O)Cn1ccnc1` (stereo not given), the IC50 is 16 µM.

Take `CCCN1CCN(Cc2ccc(S(=O)(=O)Nc3cccc(C)c3)cc2)CC1`: the IC50 is 25 µM.

For the compound `O=C1CCCCCC1(Cc1cnc[nH]1)c1ccc(Cl)cc1Cl` (stereo not given), the IC50 is 20 µM.

As to `O=S(=O)(c1ccccc1C(F)(F)F)N1CCN(Cc2ccc(-n3ccnc3)cc2)CC1`, the IC50 was > 50 µM (inactive).

Regarding `O=C1CN(C2CCCc3c(OCc4ccncc4)cccc32)C(=O)N1C1CCCCC1` (stereo not given), the IC50 is > 50 µM (inactive).

Turning to `O=c1cc(NCCCNC2CCOc3c(I)cc(Cl)cc32)[nH]c2ccccc12` (stereo not given), the IC50 is 25 µM.

With `COc1ccc(CN(C)Cc2ccncc2)cc1-c1ccc(S(=O)(=O)NC2CCC2)s1`, the IC50 was 25 µM.

For `C=CCn1nc([N+](=O)[O-])nc1Oc1ccc(Cl)cc1Cl`, the IC50 was 50 µM.

Consider `O=C(Nc1ccc(Br)cn1)c1ccc(Cn2cnc([N+](=O)[O-])n2)cc1`, for which the IC50 is > 50 µM (inactive).

For `Cn1nccc1-c1cc(OC(CN)c2ccccc2)cnc1-c1ccco1` (stereo not given), the IC50 was 20 µM.

Regarding `COc1ccccc1C=CCN1C[C@H]2CCC[C@@H](C1)C2(O)c1cccnc1` (stereo not given in full), the IC50 is 32 µM.

Turning to `O=C(CN(c1cccc(C(F)(F)F)c1)S(=O)(=O)c1ccc(Cl)cc1)NCc1ccc(F)c(F)c1`, the IC50 was 32 µM.

In the case of `Cc1c(C(C)NC(=O)Nc2cccc(Cl)c2)sc2ncnn12` (stereo not given), the IC50 was > 50 µM (inactive).

As for `O=C(Nc1cccc(Cl)c1)N1CCCCC1c1cccnc1` (stereo not given), the IC50 is 32 µM.

For the compound `CCN(Cc1ccncc1)Cc1ccc(NC(=O)c2cc(-c3ccc(F)cc3)n[nH]2)cc1`, the IC50 was 10 µM.

On to `COc1ccc(-c2ccc3nnc(-c4ccc(O)c(OC)c4)n3c2)cn1`, for which the IC50 is 50 µM.

On to `CCCn1c(NC(=O)Cc2ccc(Cl)cc2)nc2ccccc21`, for which the IC50 is > 50 µM (inactive).

Consider `O=C(NCCc1nc(-c2ccc(F)c(F)c2)n[nH]1)C1CCCCC1`, for which the IC50 is > 50 µM (inactive).

Regarding `CCN(CC)S(=O)(=O)c1ccc(C(=O)Nc2cc(C)nn2-c2nc(C)c(C)c(=O)[nH]2)cc1`, the IC50 is > 50 µM (inactive).

As to `Fc1ccccc1N1C[C@H]2CCN(c3cccnc3)C[C@H]2C1`, the IC50 is 13 µM.

`CNc1cc(Cn2c(C(=O)c3cc(C)cc(Cl)c3)c(C(C)C)c(=O)[nH]c2=O)ccn1`: the IC50 is 10 µM.

In the case of `Cc1ccc(S(=O)(=O)Nc2ccc(CN3CCN(C(=O)c4cccc(C#N)c4)CC3)cc2)cc1`, the IC50 was > 50 µM (inactive).

In the case of `Cc1cccnc1CN1CCN(CCCOc2ccc(-c3ccc(C(N)=O)cc3)cc2)CC1`, the IC50 is 6.3 µM.

`COc1cc(-c2nc(N3CCOCC3)sc2-c2ccnc(NC3CCOCC3)n2)ccc1Cl`: the IC50 is > 50 µM (inactive).

As for `CN(Cc1nc2ccccc2s1)C(=O)C=Cc1cc2ccccc2o1`, the IC50 is 32 µM.

Take `Cc1cc(C)c(C#N)c(SCC(=O)c2ccc3c(c2)OCO3)n1`: the IC50 is > 50 µM (inactive).

As to `N#Cc1cccc(CN2CCC(c3nc(-c4ccc(C(F)(F)F)nc4)no3)CC2)c1`, the IC50 is > 50 µM (inactive).

For the compound `c1cncc(CN(Cc2ccco2)Cc2cn[nH]c2-c2cccs2)c1`, the IC50 was 32 µM.

In the case of `Cc1cc2ncn(-c3ccc([N+](=O)[O-])cc3C#N)c2cc1C`, the IC50 is > 50 µM (inactive).

Consider `O=C(Nc1cccc(F)c1)N1CCC(Oc2cccc(-c3cccnc3)c2)CC1`, for which the IC50 was 40 µM.

With `CC(C)N(C(=O)CN1C(=O)C(N)C(=O)N(c2ccccc2)c2ccccc21)c1ccccc1` (stereo not given), the IC50 was 20 µM.

Consider `CS(=O)(=O)c1ccc(CC(=O)Nc2nc(-c3ccc(Cl)s3)cs2)cc1`, for which the IC50 is > 50 µM (inactive).

Take `O=[N+]([O-])c1ccc(C2=CC(c3ccccc3)=NCCN2)cc1`: the IC50 is 7.9 µM.

With `O=c1ccn(-c2ccc([N+](=O)[O-])cc2Cl)c2ccc(F)cc12`, the IC50 was > 50 µM (inactive).

In the case of `O=c1[nH]cnc2c([C@@H]3O[C@H](CO)[C@@H](O)[C@H]3O)[nH]nc12`, the IC50 is > 50 µM (inactive).

Turning to `CN(Cc1ccccc1)Cc1nnnn1C1CCN(Cc2ccc(-n3ccnc3)cc2)CC1`, the IC50 was 4 µM.

On to `CN(C)c1ccc(-c2cc3nccnc3c(OC[C@H]3CCCNC3)n2)cn1`, for which the IC50 is 16 µM.

`Cc1c([N+](=O)[O-])c(C(=O)Nc2sc3c(c2C#N)CCC(C)C3)nn1C` (stereo not given): the IC50 was 13 µM.

With `O=C(NCc1nnc2n1CCCCC2)c1ccc(-c2ccc(F)cc2)o1`, the IC50 is > 50 µM (inactive).

As to `O=C(c1cnn(-c2ccccc2)n1)N1CCCC(n2ccnc2)C1` (stereo not given), the IC50 is 20 µM.

`NC(=O)c1ccc(-c2cccc(OCCN3CCN(C4CCCCC4)CC3)c2)cc1`: the IC50 is 16 µM.

For `N#Cc1cc([N+](=O)[O-])ccc1NC1CCCCCC1`, the IC50 is > 50 µM (inactive).

Regarding `COc1ccc(NS(=O)(=O)c2cc(NC(=O)Cc3ccc(C)cc3)ccc2N2CCOCC2)cc1`, the IC50 was 25 µM.

`COc1cccc(-c2cc(C(F)(F)F)nc(-n3ccc([N+](=O)[O-])n3)n2)c1`: the IC50 was > 50 µM (inactive).

In the case of `O=c1ccc2ccc(F)c3c2n1C[C@H]3CN1CCC(NCc2cc3ccccc3o2)CC1`, the IC50 was 20 µM.

On to `O=C(c1cccc(Cl)c1Cl)N1CCn2c1nc(-c1ccncc1)cc2=O`, for which the IC50 was 20 µM.

On to `COc1ccc(C)cc1-c1csc(NC(=O)C(C)n2ccnc2)n1` (stereo not given), for which the IC50 was 50 µM.

As for `N#Cc1ccc(S(=O)(=O)N2CCC3(CCN(c4ccccc4)C3=O)CC2)cc1`, the IC50 is > 50 µM (inactive).

In the case of `c1ccc2c(CCOc3nccnc3-c3ccncc3)c[nH]c2c1`, the IC50 is 20 µM.

For `COc1ccc2nccc([C@H](O)CN3CC[C@H](NC(=O)c4ccc(Br)cc4)[C@@H](O)C3)c2n1`, the IC50 was > 50 µM (inactive).

On to `O=C(NCC(c1cccnc1)N1CCc2ccccc2C1)C(=O)Nc1cccc(Cl)c1` (stereo not given), for which the 50% inhibitory concentration (IC50) is 25 µM.

Regarding `N#Cc1ccc(S(=O)(=O)N2CCN(Cc3cccc(-c4ccncc4)c3)CC2)cc1`, the IC50 is 13 µM.

On to `O=C(CSc1ccc(F)cc1)N[C@@H](Cc1cnc[nH]1)C(=O)NCCc1ccccc1`, for which the IC50 was 13 µM.

With `C=CCOCC1Cn2nc([N+](=O)[O-])nc2O1` (stereo not given), the IC50 was > 50 µM (inactive).

As to `CCC1Oc2cc(S(=O)(=O)N(C)CC(=O)N3CCc4ccccc4C3)c(C)cc2NC1=O` (stereo not given), the IC50 was > 50 µM (inactive).

For `CN(C)CCN(C)Cc1ccc(F)cc1NS(=O)(=O)c1ccc(Cl)c(Cl)c1`, the IC50 was 16 µM.

In the case of `Cc1cc(Br)cc(C(=O)c2c(C(C)C)c(=O)[nH]c(=O)n2Cc2ccnc(N)c2)c1`, the IC50 is 16 µM.

Regarding `O=C1CSC(c2cccnc2)N1c1ccc(Cl)cc1Cl` (stereo not given), the IC50 was > 50 µM (inactive).

For `COc1ccc(C(C)N(C)c2ncc3c(N)nc(N)nc3n2)cc1F` (stereo not given), the IC50 is 40 µM.

`Cc1nc(N2CCC(C(=O)N3CCC(O)(c4cccnc4)CC3)CC2)nc2ccc(C(C)C)cc12`: the IC50 is 25 µM.

With `c1ccc(CCNCc2cncc3nc(-c4cnccn4)n(C4CCCCC4)c23)cc1`, the IC50 was 6.3 µM.

`N#Cc1c(Oc2cccc(Cl)c2)cccc1[N+](=O)[O-]`: the IC50 is 20 µM.

`Cc1cc(N(C)C)nc(Nc2ccccc2C)n1`: the IC50 was 40 µM.

Turning to `Cc1[nH]nc2c1C(c1ccc(OCc3ccccc3F)cc1)SCC(=O)N2` (stereo not given), the IC50 is > 50 µM (inactive).

Take `O=C(NCCc1ccccn1)C(c1cn[nH]c1)N1CCN(c2ccc(Cl)c(Cl)c2)CC1` (stereo not given): the IC50 was 32 µM.

Regarding `O=C(NCc1ccc(-n2cccc2)cc1)c1nc(Cn2ccc([N+](=O)[O-])n2)no1`, the IC50 was 50 µM.

For the compound `O=C(CCCn1cnc([N+](=O)[O-])n1)Nc1cccc(Cl)c1`, the IC50 was > 50 µM (inactive).

Consider `CN(Cc1cccnc1)Cc1ccc(N2CCN(C(=O)C3(c4ccc(Cl)cc4)CC3)CC2)nc1`, for which the IC50 was 7.9 µM.

Regarding `CC(=Cc1ccccc1)CN1CCC(=O)N(Cc2cccnc2)CC1`, the IC50 is > 50 µM (inactive).

In the case of `Cc1cc2cncn2c(C2CCCCN2C(=O)c2cccs2)n1` (stereo not given), the IC50 is > 50 µM (inactive).

Regarding `CN(C)Cc1ccc(N2CCC(NS(=O)(=O)c3ccc(Cl)cc3)CC2)cc1`, the IC50 was 16 µM.

`COc1ccc(-c2cc(C)no2)cc1S(=O)(=O)Nc1ccc(F)c(Cl)c1`: the IC50 was 25 µM.

Regarding `FC(F)(F)c1cc(C2CCCN(Cc3c[nH]c4ccccc34)C2)nc2ncnn12` (stereo not given), the IC50 was 20 µM.

As for `CC(CNS(=O)(=O)c1ccc(OC(F)F)cc1)c1ccc(NC(=O)c2ccncc2)cc1` (stereo not given), the IC50 is > 50 µM (inactive).

In the case of `CC(C)Nc1nccc(-c2c(-c3ccc(F)cc3)ncn2C2CCOCC2)n1`, the IC50 was > 50 µM (inactive).

One may read the IC50 as the concentration at which inhibition is half-maximal.
